Assay results from ChEMBL document CHEMBL1201862, “PubChem BioAssay data set” (2004).
Several values for one entry are separate records, joined by “and”; a condition that tells them apart may be missing. Equal values may be shown once.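 Compound exposure: 48 hours, 5 concentrations, 96-well plates. Abbreviation: GI50, concentration required for 50% inhibition of growth.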 Activity calls are given as the source filed them. Cut-off read from the data, not from the text of the source: active = GI50 up to about 1.1 µM and inactive = higher.

Columns and labels:
Assay in all cases: inhibition of tumour cell growth, NCI panel, 48 h
[1] = system: MDA-MB-435
[2] = system: HT-29
[3] = system: KM12
[4] = system: NCI-H522
[5] = system: COLO 205
[6] = system: SK-MEL-2
[7] = system: 786-0
[8] = system: HOP-62
[9] = system: OVCAR-8
[10] = system: HCC 2998
[11] = system: SK-MEL-5
[12] = system: CCRF-CEM
[13] = system: MCF7
[14] = system: NCI-H460
[15] = system: EKVX
[16] = system: SF-268
[17] = system: SW-620
[18] = system: SN12C
[19] = system: OVCAR-4
[20] = system: NCI-H226

Compound | GI50 [1] | GI50 [2] | GI50 [3] | GI50 [4] | GI50 [5] | GI50 [6] | GI50 [7] | GI50 [8] | GI50 [9] | GI50 [10] | GI50 [11] | GI50 [12] | GI50 [13] | GI50 [14] | GI50 [15] | GI50 [16] | GI50 [17] | GI50 [18] | GI50 [19] | GI50 [20]
CC[C@@H]1/C=C/C=C/C[C@H](C)[C@@H](O)[C@](C)(O)C(=O)[C@H](C)[C@@H](O)[C@H](C)C(=O)[C@H](C)[C@@H](O)[C@H](C)/C=C/C(=O)O[C@H]2[C@@H](C)[C@@H](CC1)O[C@]1(O[C@H](CC(C)O)[C@H](C)CC1=O)[C@@H]2C (stereo not given in full) | 3.26 µM (inactive) | 2.92 µM (inactive) | 3.81 µM (inactive) | < 0.0025 µM (active) | < 0.0025 µM (active) | 3.89 µM (inactive) | 4.79 µM (inactive) | 3.18 µM (inactive) | < 0.0025 µM (active) | 3.53 µM (inactive) | < 0.0025 µM (active) | 3.56 µM (inactive) | < 0.0025 µM (active) | 1.04 µM (active) | < 0.0025 µM (active) | 3.71 µM (inactive) | 5.57 µM (inactive) | 3.74 µM (inactive) | 2.56 µM (inactive) | –
C1C2CC3CC1CC(Nc1nc(NC45CC6CC(CC(C6)C4)C5)nc(NC45CC6CC(CC(C6)C4)C5)n1)(C2)C3 | > 56.4 µM (inactive) | > 100 µM (inactive) | 22.1 µM (inactive) | – | 28.7 µM (inactive) | > 70 µM (inactive) | > 20.8 µM (inactive) | > 36.5 µM (inactive) | > 26 µM (inactive) | 72.1 µM (inactive) | 14.3 µM (inactive) | > 92.9 µM (inactive) | 55.1 µM (inactive) | 66.4 µM (inactive) | > 43.5 µM (inactive) | > 100 µM (inactive) | 79.4 µM (inactive) | > 100 µM (inactive) | > 83 µM (inactive) | > 100 µM (inactive)
CC1(C)C(O)C[C@]23CCC[C@](C)(C[C@@H](O)C12)C3 (stereo not given in full) | > 100 µM (inactive) | > 100 µM (inactive) | > 100 µM (inactive) | > 100 µM (inactive) | > 100 µM (inactive) | > 100 µM (inactive) | 32.9 µM (inactive) | > 100 µM (inactive) | > 100 µM (inactive) | – | > 100 µM (inactive) | > 100 µM (inactive) | > 100 µM (inactive) | > 100 µM (inactive) | > 100 µM (inactive) | > 100 µM (inactive) | > 100 µM (inactive) | > 100 µM (inactive) | > 100 µM (inactive) | > 100 µM (inactive)
Cc1cc2ncn(CC(=O)O)c2cc1C | > 100 µM (inactive) | > 100 µM (inactive) | > 100 µM (inactive) | > 100 µM (inactive) | > 100 µM (inactive) | > 100 µM (inactive) | > 100 µM (inactive) | > 100 µM (inactive) | > 100 µM (inactive) | – | > 100 µM (inactive) | > 100 µM (inactive) | > 100 µM (inactive) | > 100 µM (inactive) | > 100 µM (inactive) | > 100 µM (inactive) | > 100 µM (inactive) | > 100 µM (inactive) | > 100 µM (inactive) | > 100 µM (inactive)
COc1ccccc1/C=C(/C)[N+](=O)[O-] | 3.15 µM (inactive) and 1.93 µM (inactive) | 3.65 µM (inactive) and 3.44 µM (inactive) | 2.96 µM (inactive) and 1.74 µM (inactive) | 1.39 µM (inactive) and 1.19 µM (inactive) | 3.05 µM (inactive) and 1.83 µM (inactive) | 1.99 µM (inactive) and 2.53 µM (inactive) | 1.37 µM (inactive) and 1.13 µM (inactive) | 1.81 µM (inactive) and 3.37 µM (inactive) | 1.79 µM (inactive) and 2.12 µM (inactive) | 1.48 µM (inactive) and 3.94 µM (inactive) | 2.07 µM (inactive) and 1.85 µM (inactive) | – | – | – | 3.21 µM (inactive) and 4.49 µM (inactive) | – | 2.43 µM (inactive) and 2.02 µM (inactive) | 2.24 µM (inactive) and 1.98 µM (inactive) | 5.94 µM (inactive) and 3.86 µM (inactive) | 2.02 µM (inactive) and 2.34 µM (inactive)
CCc1ccc2oc(-c3cc(O)c(-c4nc5cc(CC)ccc5o4)cc3O)nc2c1 | > 100 µM (inactive) | – | – | – | > 100 µM (inactive) | > 100 µM (inactive) | > 100 µM (inactive) | > 100 µM (inactive) | > 100 µM (inactive) | > 100 µM (inactive) | > 100 µM (inactive) | > 100 µM (inactive) | > 100 µM (inactive) | > 100 µM (inactive) | > 100 µM (inactive) | > 100 µM (inactive) | > 100 µM (inactive) | > 100 µM (inactive) | – | > 100 µM (inactive)
COC(=O)c1c(C(=O)OC)c2ccccn2c1-c1cc(C)cc2c1C(=O)C=CC2=O | 11.4 µM (inactive) | 11.2 µM (inactive) | > 10 µM (inactive) | > 10 µM (inactive) | 5.22 µM (inactive) | 12.5 µM (inactive) | 5.48 µM (inactive) | 15.7 µM (inactive) | 6.3 µM (inactive) | 13.9 µM (inactive) | 12.4 µM (inactive) | 0.796 µM (active) | – | > 10 µM (inactive) | 14.8 µM (inactive) | 13.9 µM (inactive) | 2.89 µM (inactive) | 12.7 µM (inactive) | 14.2 µM (inactive) | 13.8 µM (inactive)
COC(=O)C1c2cc3c(cc2C(OC2OC(C)C(OC)C(C)(OC)C2OC)CC1(C)O)C(=O)c1c(O)cc2c(c1C3=O)OC1OC2(C)C(O)C([N+](C)(C)[O-])C1O (stereo not given) | 0.158 µM (active) | 0.173 µM (active) | 0.154 µM (active) | 0.055 µM (active) | 0.0634 µM (active) | 0.137 µM (active) | 0.111 µM (active) | 0.336 µM (active) | 0.0927 µM (active) | 0.146 µM (active) | 0.0776 µM (active) | 0.0504 µM (active) | 0.149 µM (active) | 0.0644 µM (active) | 0.658 µM (active) | 0.0891 µM (active) | 0.0845 µM (active) | 0.102 µM (active) | 4.09 µM (inactive) | –
CS(=O)(=O)c1nc(-c2cc3c(c(S(C)(=O)=O)n2)CCC3)cc2c1CCCC2 | > 100 µM (inactive) | > 100 µM (inactive) | > 100 µM (inactive) | 17 µM (inactive) | > 100 µM (inactive) | 24.6 µM (inactive) | 35.3 µM (inactive) | 24.1 µM (inactive) | 19.1 µM (inactive) | > 100 µM (inactive) | > 100 µM (inactive) | > 100 µM (inactive) | – | – | > 100 µM (inactive) | 7.76 µM (inactive) | > 100 µM (inactive) | > 100 µM (inactive) | > 100 µM (inactive) | > 100 µM (inactive)
C[n+]1c2ccccc2c(C(=O)Nc2ccc(S(=O)(=O)Nc3ccnn3-c3ccccc3)cc2)c2ccccc21 | > 100 µM (inactive) | > 100 µM (inactive) | > 100 µM (inactive) | – | > 100 µM (inactive) | > 100 µM (inactive) | > 100 µM (inactive) | > 100 µM (inactive) | > 100 µM (inactive) | > 100 µM (inactive) | 69.2 µM (inactive) | – | > 100 µM (inactive) | > 100 µM (inactive) | > 100 µM (inactive) | > 100 µM (inactive) | > 100 µM (inactive) | > 100 µM (inactive) | > 100 µM (inactive) | > 100 µM (inactive)
C1=C2C3=[N+](CCCC3)CC2Cc2ccsc21 (stereo not given) | > 100 µM (inactive) | > 100 µM (inactive) | 42.4 µM (inactive) | 62.8 µM (inactive) | > 100 µM (inactive) | > 100 µM (inactive) | > 100 µM (inactive) | > 100 µM (inactive) | 82.6 µM (inactive) | – | 66.5 µM (inactive) | > 100 µM (inactive) | > 100 µM (inactive) | 38 µM (inactive) | 52.6 µM (inactive) | > 100 µM (inactive) | > 100 µM (inactive) | > 100 µM (inactive) | 84.3 µM (inactive) | > 100 µM (inactive)
Cc1c(C#N)c(=N)oc2ccccc12 | > 100 µM (inactive) | > 100 µM (inactive) | > 100 µM (inactive) | – | > 100 µM (inactive) | 84.1 µM (inactive) | > 100 µM (inactive) | 88.9 µM (inactive) | > 100 µM (inactive) | > 100 µM (inactive) | > 100 µM (inactive) | > 10 µM (inactive) | > 100 µM (inactive) | > 100 µM (inactive) | 49.8 µM (inactive) | > 100 µM (inactive) | > 100 µM (inactive) | > 100 µM (inactive) | > 100 µM (inactive) | > 100 µM (inactive)
Cc1cccc(N2CCN(S(=O)(=O)c3ccc(Cl)cc3)C2=N)c1C | > 100 µM (inactive) | > 100 µM (inactive) | > 100 µM (inactive) | – | > 100 µM (inactive) | – | > 100 µM (inactive) | – | 93.8 µM (inactive) | – | > 100 µM (inactive) | – | > 100 µM (inactive) | – | – | > 100 µM (inactive) | > 100 µM (inactive) | > 100 µM (inactive) | – | > 100 µM (inactive)
CCOc1cccc(/C=N/N=C2\C(=O)Nc3c(Cl)cc(Cl)cc32)c1O | 44.8 µM (inactive) | > 100 µM (inactive) | > 100 µM (inactive) | – | > 100 µM (inactive) | 83.8 µM (inactive) | 74.6 µM (inactive) | 30.4 µM (inactive) | 60.5 µM (inactive) | 85.7 µM (inactive) | 64.4 µM (inactive) | 31.6 µM (inactive) | 57.5 µM (inactive) | 37 µM (inactive) | 5.97 µM (inactive) | – | 75.9 µM (inactive) | 73.6 µM (inactive) | 62.8 µM (inactive) | > 100 µM (inactive)
